In patent US20120237614A1, “PEPTIDE ABLE TO DISRUPT THE PROTEIN COMPLEX BETWEEN THE HIS273 MUTADED P53 PROTEIN AND THE ONCOSUPPRESSIVE P73 PROTEIN IN TUMOR CELLS AND THERAPEUTIC USES THEREOF” (priority 2009, published 2012):
“Also recorded” adds a separate entry of the source.

Experiments:
[1] = system: MDA-MB-468 cells; test: Apoptotic tests (PARP and BAX expression, Western blot) after Adriamycin; format: cell-based, human; conditions: MDA-MB-468, 3 μM Adriamycin
Experimental: (§1) (A) MDA-MB-468 (5×10^5) cells have been transfected using a lipofectamine containing mixture, βgal expression vector, which normalizes transfection efficiency, and SIMPI peptide (20 μM). Total cellular lysates (1 mg), have been immunoprecipitated with antibodies directed against p73 and immunoglobulins (IgG). Immunoprecipitates and an aliquot (50 μg) of total lysate after 12% acrylamide gel electrophoretic run have been transferred on nitrocellulose membrane and labelled with antibodies shown in the figure. (B) MDA-MB-468 cells, have been transfected using SIMP1 and SIMP5,6. peptides. Successively, cells have been washed and stimulated with 3 μM Adriamycin. Total obtained lysates (30 μg) have been assayed for the expression of PARP and BAX apoptotic proteins. Lysate has been normalized by assaying γ-tubulin expression. (C-D). Transactivation tests have been carried out by transient transfection of H1299 cells using a mixture containing lipofectamine, SIMP1, SIMP5,6 indicated plasmids (20 μM each) together with pLUC-BAX reporter vector. To each reaction mixture an equal amount of […] expression vector was added, in order to normalize the transfection efficiency.
50 μg of solubilised proteins have been separated by electrophoresis on 10 or 15% SDS-polyacrylamide gel. Western blot analysis has been carried out using anti-p53 primary antibodies (DO1 Calbiochem), rabbit anti-PARP, rabbit polyclonal anti-Bax, anti-p21 and anti-tubulin monoclonal antibodies (Calbiochem). Goat anti-mouse and goat anti-rabbit horse peroxidase conjugated secondary antibodies (Amersham) have been used for the expression analyses. Immunolabelled lanes have been detected using chemiluminescence analysis (Pierce).
To this end cell viability and apoptotic tests (FIG. 1B, FIG. 4 B-C) on MDA-MB468 breast carcinoma have been carried out.

[2] = system: m-p53 His273 inhibition on p73 transcription activity; test: Transactivation test with pLUC-BAX reporter in transiently transfected H1299 cells; format: cell-based, human; conditions: peptides 20 μM each
Experimental: as §1, with “efficiency. […]” for “efficiency.”
To this end, we have analyzed the ability in blocking the His273 p53 induced inhibition on transcription activity. […]

[3] = system: MDA-MB-468 cells (His-273 p53 mutation); test: Transactivation test (pLUC-BAX, pLUC-p21) in Adriamycin treated MDA-MB-468 cells; format: cell-based, human; conditions: MDA-MB-468, 3 μM Adriamycin 24 hours post-transfection, luciferase reporter
Experimental: MDA-MB-468 cells have been transfected using a mixture containing lipofectamine, pLUC-BAX plasmid, β-galactosidase expression vector, SIMP1 and SIMP control peptides. The cells, 24 hours post-transfection, have been treated with 3 μM Adriamycin.
MDA-MB-468 cells have been transfected using a mixture containing lipofectamine, pLUC-BAX plasmid, pLUC-p21, β-galactosidase expression vector, SIMP1 peptides and SIMP1M and SIMP1KO derived mutant thereof. The cells, 24 hours post-transfection, have been treated with 3 μM Adriamicyn and then processed.
SKBR3, HT-29, MDA-MB-468 cell lines have been transfected with Lipofectamine 2000 according to the supplier instructions (InVitrogen).
Cells (1.5×10^5) have been transiently transfected using SIMP peptides, expression plasmids and reporter constructs as internal controls for transfection efficiency. After the transfection, SKBR3, HT-29 and MDA-MB-468 have been incubated with 3 μM ADR over 24 hours. Cells have been washed with cold PBS and re-suspended in lysis buffer (Promega) and incubated for 10 min at room temp. Insoluble material has been centrifuged and luciferase activity has been determined using a commercial kit with a luminometer (Turner).

[4] = target: GST-p53 His175 (Homo sapiens, UniProt P04637, R175H); test: Dot immunobinding test with purified GST-p53 fusion proteins; format: binding; conditions: 20 μg GST fusion purified proteins
Experimental: (A) Total extracts deriving from SKBR3, (His-175) HT29, (His-273) and H1299 (p53 free) tumour cells have been incubated (1 mg) on SIMP1 and SIMPIKO peptide labelled nitrocellulose membrane and Dot Blot analysed. In (B) the membranes have been incubated with 20 μg of wild type WT GST-p53 purified protein or GST-p53 His-175, GST-p53-His-175, 74-298 or GST alone. In both experiments dots have been detected by labelling the membranes with anti-p53 (DO1) antibody
Nitrocellulose membranes have been cut, washed with water and blotted on the paper filters. The peptides at 250 mM concentration have been transferred on membrane. Labelled membrane has been washed for 10 min. with TBST buffer (10 mM Tris-HCl pH 7.4, 150 mM NaCl, 0.05% (v/v) Tween-20) and then blocked for 45 min with TBST/5% milk. Then the membranes have been incubated for 6 hours at 4° C. in shaker with 1 mg of total protein extract or 20 μg of GST fusion purified proteins. Successively the membranes have been washed with TBST buffer and decorated with anti-p53 antibody (DO1) as a primary antibody. As secondary antibody horse peroxidase conjugated goat antibody has been used. Immunolabelled lanes have been detected using chemiluminescence analysis (Pierce).
The membranes decorated with SIMP peptides also have been incubated with GST-p53 His175, GST p53His74-298, GST WTp53 fusion proteins, GST control.

[5] = system: tumour cell lines containing His-175 or His-273 p53 mutation; test: Summary of activity by p53 mutation type; format: cell-based; conditions: FIG. 6 summary
From the text: SIMP1M: FQQSSTARSATW (SEQ ID NO:16) (MW: 1369, PI: 9.75) peptide is a mutated version of SIMP1 peptide wherein K138 residue has been replaced by Arginine.
FIG. 6 that SIMP peptides and by-products thereof displace protein complexes involving mutated protein p53 and p73.

FQQSSTAKSATW (p73 SIMP (aa 131-142)) [SIMP1]
apoptotic response [1]: increase the apoptotic response to chemotherapeutic agents | apoptotic response ([1]; listed as SIMPI): increases the apoptotic response | restoration of p73 transcription activity inhibited by m-p53 His273 [2]: modify mutated p53/p73 protein complex restoring p73 oncosuppressive functions; also recorded: blocked the m-p53 His273 inhibition on p73 transcription activity | Adriamycin chemosensitivity / p73 transcription response [3]: increases the Adriamycin sensitivity; also recorded: increase Adriamycin chemosensitivty; also recorded: increased p73 transcription response as an adriamycin response | reaction with GST-p53 fusion proteins (dot blot, anti-p53 DO1) [4]: no reaction was observed | specificity for p53 mutation type [5]: display specificity for His-273 mutation containing tumours
